Article PMC9671780 (Bioorganic Chemistry, 2022)
≈ marks a conversion by molar mass, not a printed value.

What was measured:
SARS-CoV-2 = type: cell-based; settings: for Antiviral Potency Index (API): ratio of % inhibition to that of remdesivir at 10 µM; for SARS-CoV-2 Antiviral Assay (%) inhibition of viral replication: 10 µM
in vitro = settings: African green monkey, Vero E6 Cytotoxicity (IC50), MTT
SARS-CoV-2 M^pro = SARS-CoV-2 M^pro (Severe acute respiratory syndrome coronavirus 2, UniProt P0DTD1); assay: biochemical; settings: for IC50: IC50 against SARS-CoV-2 M^pro, Table 1 and text
PBS solubility screening = type: physicochemical; settings: for Solubility note: PBS; for solubility: phosphate-buffered saline, aqueous buffer, kinetic from dmso stock
[1] = Enzymatic metabolic stability; type: in vitro ADME
IL-6 = assay: Carrageenan-induced paw edema in rats: serum IL-6; type: in vivo, Sprague Dawley Rat; settings: male rats, 100 mg/kg, 6 h after carrageenan
TNF-α = assay: Carrageenan-induced paw edema in rats: serum TNF-α; type: in vivo, Sprague Dawley Rat; settings: male rats, 100 mg/kg, 6 h after carrageenan
Vero E6 cells = settings: for IC50: read-out: Vero E6 Cytotoxicity (IC50), MTT

| Compound | Antiviral Potency Index (API) (SARS-CoV-2) | IC50 (in vitro) [µM] | IC50 (SARS-CoV-2 M^pro) [µM] | further results |
| --- | --- | --- | --- | --- |
| Cc1nn(-c2ccc(Cl)cc2)c2c1C(c1ccc(Br)cc1)C(C#N)=C(N)O2 (stereo not drawn) [Compound 19, 6-Amino-4-(4-bromophenyl)-1-(4-chlorophenyl)-3-methyl-1,4-dihydropyrano[2,3-c]pyrazole-5-carbonitrile] | 0.45 | 26.2 ± 20 | 30.9 ± 1.6 | – |
| Cc1nn(-c2ccc(Cl)cc2)c2c1C(c1ccc(I)cc1)C(C#N)=C(N)O2 (stereo not drawn) [Compound 20, 6-Amino-1-(4-chlorophenyl)-4-(4-iodophenyl)-3-methyl-1,4-dihydropyrano[2,3-c]pyrazole-5-carbonitrile] | 0.62 | 103 ± 7.8 | 69.1 ± 3.5 | – |
| CO[C@H]1/C=C/O[C@@]2(C)Oc3c(C)c(O)c4c(O)c(c(/C=N/N5CCN(C)CC5)c(O)c4c3C2=O)NC(=O)/C(C)=C\C=C\[C@H](C)[C@H](O)[C@@H](C)[C@@H](O)[C@@H](C)[C@H](OC(C)=O)[C@@H]1C [Rifampicin, reference compound] | – | – | – | Solubility note (PBS solubility screening): Reference with good solubility; solubility (PBS solubility screening): 179 µM (≈ 148 µg/mL) |
| Cc1nn(-c2ccc(Cl)cc2)c2c1C(c1ccc(Cl)cc1Cl)C(C#N)=C(N)O2 (stereo not drawn) [Compound 27, 6-Amino-1-(4-chlorophenyl)-4-(2,4-dichlorophenyl)-3-methyl-1,4-dihydropyrano[2,3-c]pyrazole-5-carbonitrile] | 0.98 | > 60 | – | SARS-CoV-2 Antiviral Assay (%) inhibition of viral replication (SARS-CoV-2): 91.23 ± 0.25%; Mode of binding from kinetic analysis (SARS-CoV-2 M^pro): reversibly and non-competitively with non-covalent interactions; Metabolic rate [1]: intermediate clearance rate; microsomal CLint [1]: 54.6 µL/min/mg; half-life ([1]; Intrinsic half-life (t1/2)): > 2 h; half-life ([1]; Mean t1/2): 2.23 h; Serum level of IL-6 (IL-6): 64 pg/mL; Serum level of TNF-α (TNF-α): 385 pg/mL; Solubility note (PBS solubility screening): Moderate aqueous solubility; solubility (PBS solubility screening): 22.4 µM (≈ 9.67 µg/mL); IC50 (Vero E6 cells): 62 ± 4.7 µM |
| COc1ccc(C2C(C#N)=C(N)Oc3c2c(C)nn3-c2ccc(Cl)cc2)cc1 (stereo not drawn) [Compound 21, 6-Amino-1-(4-chlorophenyl)-4-(4-methoxyphenyl)-3-methyl-1,4-dihydropyrano[2,3-c]pyrazole-5-carbonitrile] | 0.49 | 78.1 ± 5.9 | 24.6 ± 1.2 | – |
| COc1cc(C2C(C#N)=C(N)Oc3c2c(C)nn3-c2ccc(Cl)cc2)ccc1O (stereo not drawn) [Compound 32, 6-Amino-1-(4-chlorophenyl)-4-(4-hydroxy-3-methoxyphenyl)-3-methyl-1,4-dihydropyrano[2,3-c]pyrazole-5-carbonitrile] | – | 45.7 ± 3.5 | – | – |
| Cc1nn(-c2ccc(Cl)cc2)c2c1C(c1ccc(Cl)cc1)C(C#N)=C(N)O2 (stereo not drawn) [Compound 18, 6-Amino-1-(4-chlorophenyl)-4-(4-chlorophenyl)-3-methyl-1,4-dihydropyrano[2,3-c]pyrazole-5-carbonitrile] | 0.74 | 60.5 ± 4.6 | 12.8 ± 0.6 | – |
| Cc1nn(-c2ccc(Cl)cc2)c2c1C(c1ccc(F)cc1F)C(C#N)=C(N)O2 (stereo not drawn) [Compound 25, 6-Amino-1-(4-chlorophenyl)-4-(2,4-difluorophenyl)-3-methyl-1,4-dihydropyrano[2,3-c]pyrazole-5-carbonitrile] | 0.52 | 47.6 ± 3.6 | 192 ± 9.8 | – |
| CCOc1ccc(C2C(C#N)=C(N)Oc3c2c(C)nn3-c2ccc(Cl)cc2)cc1 (stereo not drawn) [Compound 31, 6-Amino-1-(4-chlorophenyl)-4-(4-ethoxyphenyl)-3-methyl-1,4-dihydropyrano[2,3-c]pyrazole-5-carbonitrile] | 0.81 | 18.1 ± 1.4 | 4.6 ± 0.25 | – |
| Cc1nn(-c2ccc(Cl)cc2)c2c1C(c1ccc(O)cc1)C(C#N)=C(N)O2 (stereo not drawn) [Compound 22, 6-Amino-1-(4-chlorophenyl)-4-(4-hydroxyphenyl)-3-methyl-1,4-dihydropyrano[2,3-c]pyrazole-5-carbonitrile] | – | > 60 | – | Mode of binding from kinetic analysis (SARS-CoV-2 M^pro): reversibly and non-competitively with non-covalent interactions; IC50 (Vero E6 cells): 67.7 ± 5.2 µM |
| Cc1nn(-c2ccc(Cl)cc2)c2c1C(c1cccc(Cl)c1Cl)C(C#N)=C(N)O2 (stereo not drawn) [Compound 26, 6-Amino-1-(4-chlorophenyl)-4-(2,3-dichlorophenyl)-3-methyl-1,4-dihydropyrano[2,3-c]pyrazole-5-carbonitrile] | – | 34.8 ± 2.7 | – | – |
| Cc1nn(-c2ccc(Cl)cc2)c2c1C(c1c(Cl)cccc1Cl)C(C#N)=C(N)O2 (stereo not drawn) [Compound 29, 6-Amino-1-(4-chlorophenyl)-4-(2,6-dichlorophenyl)-3-methyl-1,4-dihydropyrano[2,3-c]pyrazole-5-carbonitrile] | 0.50 | 63.3 ± 4.8 | 44.6 | – |
| Cc1nn(-c2ccc(Cl)cc2)c2c1C(c1cc(Cl)ccc1Cl)C(C#N)=C(N)O2 (stereo not drawn) [Compound 28, 6-Amino-1-(4-chlorophenyl)-4-(2,5-dichlorophenyl)-3-methyl-1,4-dihydropyrano[2,3-c]pyrazole-5-carbonitrile] | – | 131 ± 10 | – | – |
| CC(C)NCC(O)COc1cccc2ccccc12 (stereo not drawn) [Propranolol, reference compound] | – | – | – | half-life ([1]; Mean t1/2): 2.4 h |
| Cc1nn(-c2ccc(Cl)cc2)c2c1C(c1ccc([N+](=O)[O-])cc1)C(C#N)=C(N)O2 (stereo not drawn) [Compound 23, 6-Amino-1-(4-chlorophenyl)-4-(4-nitrophenyl)-3-methyl-1,4-dihydropyrano[2,3-c]pyrazole-5-carbonitrile] | 0.64 | 113 ± 8.6 | 9.5 ± 0.51 | – |
| CCC(CC)COC(=O)[C@H](C)N[P@](=O)(OC[C@H]1O[C@@](C#N)(c2ccc3c(N)ncnn23)[C@H](O)[C@@H]1O)Oc1ccccc1 [Remdesivir, reference compound] | – | 61.8 ± 4.7 | – | Cytotoxicity to Vero E6 cells (Vero E6 cells; at 60 μM): no cytotoxicity |
| Cc1nn(-c2ccc(Cl)cc2)c2c1C(c1ccc(-c3ccccc3)cc1)C(C#N)=C(N)O2 (stereo not drawn) [Compound 24, 4-([1,1′-Biphenyl]-4-yl)-6-amino-1-(4-chlorophenyl)-3-methyl-1,4-dihydropyrano[2,3-c]pyrazole-5-carbonitrile] | 0.54 | 60.7 ± 4.6 | 39.8 ± 2.2 | – |
| COc1cc(C2C(C#N)=C(N)Oc3c2c(C)nn3-c2ccc(Cl)cc2)cc(OC)c1OC (stereo not drawn) [Compound 33, 6-Amino-1-(4-chlorophenyl)-4-(3,4,5-trimethoxyphenyl)-3-methyl-1,4-dihydropyrano[2,3-c]pyrazole-5-carbonitrile] | 0.83 | 86.2 ± 6.6 | 22.1 ± 1.1 | – |
| Cc1nn(-c2ccc(Cl)cc2)c2c1C(c1ccc(Cl)c(Cl)c1)C(C#N)=C(N)O2 (stereo not drawn) [Compound 30, 6-Amino-1-(4-chlorophenyl)-4-(3,4-dichlorophenyl)-3-methyl-1,4-dihydropyrano[2,3-c]pyrazole-5-carbonitrile] | 0.30 | 66.5 ± 5.1 | – | SARS-CoV-2 Antiviral Assay (%) inhibition of viral replication (SARS-CoV-2): 27.84 ± 0.14% |
